Assay results: US20070172825A1, “Methods and kits for identifying functions and binding substances of gene products” (HUMAN METABOLOME TECHNOLOGIES, INC., priority 2004, published 2007)

System: Escherichia coli gene product (lactate dehydrogenase)
Assay: Reaction of purified gene product with 19-substrate compound cocktail, changes detected by CE/MS
Assay type: biochemical
Settings: 1 μg purified protein added to cocktail (100 μM each substrate, NADH 500 μM), 37° C., 30 min; control without gene product; FIG. 2
Protocol: As the compound cocktail, 100 μl of HEPES buffer (5 mM, pH7.5) comprising 19 different substrate compounds involved in the glycolytic system, TCA cycle, or pentose phosphate cycle (fructose-1,6-phosphate (F16P), 6-phosphogluconate (6PG), 2,3-phosphoglycerate (23DPG), glucose-1-phosphate (G1P), fructose-6-phosphate (F6P), glucose-6-phosphate (G6P), ribulose-5-phosphate (Ribulose5P), ribose-5-phosphate (Ribose5P), erythrose-4-phosphate (Erythrose4P), isocitric acid (iso-Citrate), citric acid (Citrate), 2-phosphoglycerate, 3-phosphoglycerate (2PG/3PG), cis-aconitic acid (cis-Aconitate), phosphoenolpyruvic acid (PEP), succinic acid (Succinate), fumaric acid (Fumarate), lactic acid (Lactate), and pyruvic acid (Pyruvate)) (100 μM each; the final concentration is shown in all parentheses hereafter), supplemented with NADH (500 μM), MgSO4 (10 mM), and KCl (10 mM) was used. […]
One μg of the purified protein was added to the above compound cocktail and incubated at 37° C. for 30 min. Immediately thereafter, the protein was removed by ultrafiltration and the reaction mixture was analyzed using a capillary electrophoresis-mass spectrometer (CE/MS). […]
CE/MS was used according to the instructions described in documents (Japanese Patent No. 3341765 and Soga T, et al., Anal. Chem., 74, 2233-2239 (2002)). […] Each compound can be detected as its own mass number (m/z).

Row | Structure (SMILES) | change in concentration of the compound in the cocktail compared with the control experiment
1 | CC(=O)C(=O)O [pyruvic acid] | significant decrease
2 | CC(O)C(=O)O (centres unmarked) [lactic acid] | increase
